From ChEMBL document CHEMBL5050833, “Novel cyclic trex1 inhibitors” (2020)

Assays:
[1] = Inhibition of human TREX1 exonuclease activity using labeled DNA oligonucleotide as substrate incubated for 30 mins and measured after 45 mins by fluorescence assay
[2] = Inhibition of mouse TREX1 exonuclease activity using labeled DNA oligonucleotide as substrate incubated for 30 mins and measured after 45 mins by fluorescence assay
[3] = species on record: Homo sapiens; assay: Binding affinity to recombinant human TREX1 incubated in PBS and measured by thermal shift binding assay; note: test concentration or dose not given here
[4] = species on record: Homo sapiens; assay: Binding affinity to recombinant human TREX1 incubated in assay buffer and measured by thermal shift binding assay; note: test concentration or dose not given here
[5] = species on record: Mus musculus; assay: Binding affinity to recombinant mouse TREX1 incubated in PBS and measured by thermal shift binding assay; note: test concentration or dose not given here
[6] = species on record: Mus musculus; assay: Binding affinity to recombinant mouse TREX1 incubated in assay buffer and measured by thermal shift binding assay; note: test concentration or dose not given here

For CC(C)C[C@H](C(=O)NCc1cnccn1)N1CCC(CCc2ccccc2)N2C[C@H](N)C[C@H]2C1=O (stereo not given in full), the IC50 [1] was “in the range around 1 µM” and the IC50 [2] was “in the range around 10 µM”.
In the case of CC(C)C[C@H](C(=O)N[C@@H](C)c1ccccc1)N1CCC(CCc2ccccc2)N2C[C@H](N)C[C@H]2C1=O (stereo not given in full), the IC50 [1] is reported as “in the range around 10 µM” and the IC50 [2] is reported as “in the range around 10 µM”.
With CC(C)C[C@H](CNC(=O)c1ccc(Cl)cc1)N1CCC(CCc2ccccc2)N2C[C@H](N)C[C@H]2C1=O (stereo not given in full) the IC50 [1] was “in the range around 1 µM” and the IC50 [2] was “in the range around 1 µM”.
For Cc1nnc(CC[C@H](C(=O)NCc2ccc(Cl)c(Cl)c2)N2CCC(CCc3ccccc3)N3C[C@H](N)C[C@H]3C2=O)[nH]1 (stereo not given in full), the IC50 [1] was under 1 µM and the IC50 [2] was under 1 µM.
For CC(C)C[C@H](C(=O)N[C@H](C)c1ccccc1)N1CCC(CCc2ccccc2)N2C[C@H](N)C[C@H]2C1=O (stereo not given in full), the IC50 [1] was “in the range around 10 µM” and the IC50 [2] was “in the range around 10 µM”.
In the case of CC(C)C[C@H](C(=O)NCc1ccc(Cl)c(Cl)c1)N1CCC(Cc2ccccc2)N2C[C@H](N)C[C@H]2C1=O (stereo not given in full), the IC50 [1] is reported as “in the range around 1 µM” and the IC50 [2] is reported as “in the range around 1 µM”.
With CC(C)C[C@H](C(=O)NCc1ccc(Cl)cc1)N1CCC(CCc2ccccc2)N2C[C@H](N)C[C@H]2C1=O (stereo not given in full) the IC50 [1] was under 1 µM and the IC50 [2] was “in the range around 1 µM”.
For CC(C)C[C@H](C(=O)NCc1ccc(F)cc1)N1CCC(CCc2ccccc2)N2C[C@H](N)C[C@H]2C1=O (stereo not given in full), the IC50 [1] was under 1 µM and the IC50 [2] was “in the range around 1 µM”.
N[C@@H]1C[C@H]2C(=O)N([C@H](CCC(=O)O)C(=O)NCc3ccc(Cl)c(Cl)c3)CCC(COc3ccccc3)N2C1 (stereo not given in full) showed an IC50 [1] of under 1 µM and an IC50 [2] of under 1 µM.
In the case of N[C@@H]1C[C@H]2C(=O)N([C@H](CCC(=O)O)C(=O)NCc3ccc(Cl)c(Cl)c3)CCC(CCc3ccccc3)N2C1 (stereo in doubt; form 1), the IC50 [1] is reported as “in the range around 10 µM” and the IC50 [2] is reported as “in the range around 10 µM”.
For CC(C)C[C@H](C(=O)NCc1cscn1)N1CCC(CCc2ccccc2)N2C[C@H](N)C[C@H]2C1=O (stereo not given in full), the IC50 [1] was “in the range around 1 µM” and the IC50 [2] was “in the range around 10 µM”.
With N[C@@H]1C[C@H]2C(=O)N([C@H](CCC(=O)O)C(=O)NCc3ccc(C(F)(F)F)cc3)CCC(CCc3ccccc3)N2C1 (stereo in doubt; form 1) the IC50 [1] was “in the range around 10 µM” and the IC50 [2] was “in the range around 10 µM”.
Compound N[C@@H]1C[C@H]2C(=O)N([C@H](CCC(=O)O)C(=O)NCc3ccc(C(F)(F)F)cc3)CCC(CCc3ccccc3)N2C1 (stereo in doubt; form 2) [listing 1 of 2 here] has a ΔTm [3] of over 8 °C, a ΔTm [4] of over 8 °C and a ΔTm [5] of 4 °C. It also gave a ΔTm [6] of 4 °C.
With CC(C)C[C@H](C(=O)NCc1ccccc1Cl)N1CCC(CCc2ccccc2)N2C[C@H](N)C[C@H]2C1=O (stereo not given in full) the IC50 [1] was “in the range around 1 µM” and the IC50 [2] was “in the range around 10 µM”.
With CC(C)C[C@H](C(=O)NS(=O)(=O)c1ccccc1)N1CCC(CCc2ccccc2)N2C[C@H](N)C[C@H]2C1=O (stereo not given in full) the IC50 [1] was “in the range around 1 µM” and the IC50 [2] was “in the range around 1 µM”.
For CC(C)C[C@H](C(=O)NCc1ccc(Cl)cc1)N1CCC(CS(=O)(=O)c2ccccc2)N2C[C@H](N)C[C@H]2C1=O (stereo not given in full), the IC50 [1] was “in the range around 1 µM” and the IC50 [2] was “in the range around 10 µM”.
For NC(=O)CC[C@H](C(=O)NCc1ccc(Cl)c(Cl)c1)N1CCC(CCc2ccccc2)N2C[C@H](N)C[C@H]2C1=O (stereo not given in full), the IC50 [1] was under 1 µM and the IC50 [2] was under 1 µM.
In the case of CC(C)C[C@H](C(=O)NCc1cncs1)N1CCC(CCc2ccccc2)N2C[C@H](N)C[C@H]2C1=O (stereo not given in full), the IC50 [1] is reported as “in the range around 1 µM” and the IC50 [2] is reported as “in the range around 10 µM”.
Work on CC(C)C[C@H](C(=O)NCc1ccc(Cl)c(Cl)c1)N1CCC(CSc2ccccc2)N2C[C@H](N)C[C@H]2C1=O (stereo not given in full) yielded an IC50 [1] of under 1 µM and an IC50 [2] of under 1 µM.
With CC(C)C[C@H](C(=O)NCC1CCCCC1)N1CCC(CCc2ccccc2)N2C[C@H](N)C[C@H]2C1=O (stereo not given in full) the IC50 [1] was “in the range around 10 µM” and the IC50 [2] was “in the range around 10 µM”.
With CC(C)C[C@H](C(=O)NCc1ccc(Cl)cc1Cl)N1CCC(CCc2ccccc2)N2C[C@H](N)C[C@H]2C1=O (stereo not given in full) the IC50 [1] was under 1 µM and the IC50 [2] was “in the range around 1 µM”.
With CC(C)C[C@H](C(=O)NCc1ccc(Cl)cc1)N1CCC(C[S@@+]([O-])c2ccccc2)N2C[C@H](N)C[C@H]2C1=O (stereo not given in full) the IC50 [1] was under 1 µM and the IC50 [2] was “in the range around 1 µM”.
N[C@@H]1C[C@H]2C(=O)N([C@H](CCC(=O)O)C(=O)NCc3ccc(Cl)c(Cl)c3)CCC(CCc3ccccc3)N2C1 (stereo in doubt; form 2) [listing 1 of 2 here] showed a ΔTm [4] of over 8 °C and a ΔTm [5] of over 8 °C.
For N[C@@H]1C[C@H]2C(=O)N([C@H](CCC(=O)O)C(=O)NCc3ccc(Cl)c(Cl)c3)CCC(CCc3ccccc3)N2C1 (stereo in doubt; form 2) [listing 2 of 2 here], the IC50 [1] was under 1 µM and the IC50 [2] was under 1 µM.
For CC(C)C[C@H](C(=O)N(C)Cc1ccc(C(F)(F)F)cc1)N1CCC(CCc2ccccc2)N2C[C@H](N)C[C@H]2C1=O (stereo not given in full), the IC50 [1] was “in the range around 1 µM” and the IC50 [2] was “in the range around 1 µM”.
For CC(C)C[C@H](C(=O)NCc1ccc(Cl)c(Cl)c1)N1CCC(COc2ccccc2)N2C[C@H](N)C[C@H]2C1=O (stereo not given in full), the IC50 [1] was under 1 µM and the IC50 [2] was “in the range around 1 µM”.
For CC(C)C[C@H](C(=O)NCCc1ccc(Cl)c(Cl)c1)N1CCC(CCc2ccccc2)N2C[C@H](N)C[C@H]2C1=O (stereo not given in full), the IC50 [1] was under 1 µM and the IC50 [2] was “in the range around 1 µM”.
For CC(C)C[C@H](C(=O)NCc1ccc(Cl)c(Cl)c1)N1CC(CCc2ccccc2)N2C[C@H](N)C[C@H]2C1=O (stereo not given in full), the IC50 [1] was “in the range around 10 µM” and the IC50 [2] was “in the range around 10 µM”.
For CC(C)C[C@H](C(=O)NCCc1ccccc1)N1CCC(CCc2ccccc2)N2C[C@H](N)C[C@H]2C1=O (stereo not given in full), the IC50 [1] was “in the range around 1 µM” and the IC50 [2] was “in the range around 10 µM”.
With CC(=O)N[C@@H]1C[C@H]2C(=O)N([C@H](CC(C)C)C(=O)NCc3ccc(Cl)c(Cl)c3)CCC(CCc3ccccc3)N2C1 (stereo not given in full) the IC50 [1] was “in the range around 1 µM” and the IC50 [2] was “in the range around 10 µM”.
In the case of CC(C)C[C@H](C(=O)NCc1ccc(Cl)c(Cl)c1)N1CCC(CCc2ccccc2)N(CCN)CC1=O (stereo not given in full), the IC50 [1] is reported as “in the range around 1 µM” and the IC50 [2] is reported as “in the range around 10 µM”.
N[C@@H]1C[C@H]2C(=O)N([C@H](CCc3nsc(=O)[nH]3)C(=O)NCc3ccc(Cl)c(Cl)c3)CCC(CCc3ccccc3)N2C1 (stereo not given in full) gave an IC50 [1] of under 1 µM and an IC50 [2] of under 1 µM.
For CC(C)C[C@H](C(=O)NCc1ccc(Cl)c(Cl)c1)N1CCC(CCc2ccc(Cl)cc2)N2C[C@H](N)C[C@H]2C1=O (stereo not given in full), the IC50 [1] was under 1 µM and the IC50 [2] was “in the range around 1 µM”.
Work on N[C@@H]1C[C@H]2C(=O)N([C@H](CCc3nnn[nH]3)C(=O)NCc3ccc(Cl)c(Cl)c3)CCC(CCc3ccccc3)N2C1 (stereo not given in full) yielded an IC50 [1] of under 1 µM and an IC50 [2] of under 1 µM.
For CC(C)C[C@H](C(=O)NCc1ccc(C#N)cc1)N1CCC(CCc2ccccc2)N2C[C@H](N)C[C@H]2C1=O (stereo not given in full), the IC50 [1] was “in the range around 1 µM” and the IC50 [2] was “in the range around 10 µM”.
Compound CC(C)C[C@H](C(=O)NS(=O)(=O)c1ccc(Cl)c(Cl)c1)N1CCC(CCc2ccccc2)N2C[C@H](N)C[C@H]2C1=O (stereo not given in full) has an IC50 [1] of under 1 µM and an IC50 [2] of under 1 µM.
In the case of CC(C)C[C@H](C(=O)NCc1cc(Cl)cc(Cl)c1)N1CCC(CCc2ccccc2)N2C[C@H](N)C[C@H]2C1=O (stereo not given in full), the IC50 [1] is reported as under 1 µM and the IC50 [2] is reported as “in the range around 1 µM”.
In the case of CC(C)C[C@H](C(=O)NCc1ccc(C(F)(F)F)cc1)N1CCC(CCc2ccccc2)N2C[C@H](N)C[C@H]2C1=O (stereo not given in full), the IC50 [1] is reported as under 1 µM and the IC50 [2] is reported as under 1 µM.
With CC(C)C[C@H](C(=O)NCc1ccc(Cl)c(Cl)c1)N1CCC(CCc2ccccc2)N2C[C@H](N(C)C)C[C@H]2C1=O (stereo not given in full) the IC50 [1] was “in the range around 10 µM” and the IC50 [2] was over 100 µM.
In the case of CC(C)C[C@H](C(=O)NCc1ccc(Cl)c(Cl)c1)N1CCC(C)N2C[C@H](N)C[C@H]2C1=O (stereo not given in full), the IC50 [1] is reported as “in the range around 10 µM” and the IC50 [2] is reported as “in the range around 10 µM”.
For CC(C)C[C@H](C(=O)NCc1cccc(Cl)c1)N1CCC(CCc2ccccc2)N2C[C@H](N)C[C@H]2C1=O (stereo not given in full), the IC50 [1] was under 1 µM and the IC50 [2] was “in the range around 1 µM”.
For Cc1ccc(CNC(=O)[C@@H](CC(C)C)N2CCC(CCc3ccccc3)N3C[C@H](N)C[C@H]3C2=O)cc1 (stereo not given in full), the IC50 [1] was “in the range around 1 µM” and the IC50 [2] was “in the range around 1 µM”.
In the case of CC(C)C[C@H](C(=O)NCc1ccccc1)N1CCC(CCc2ccccc2)N2C[C@H](N)C[C@H]2C1=O (stereo not given in full), the IC50 [1] is reported as “in the range around 1 µM” and the IC50 [2] is reported as “in the range around 10 µM”.
For CC(C)C[C@H](C(=O)NCc1ccc(Cl)cc1)N1CCC(C[S@+]([O-])c2ccccc2)N2C[C@H](N)C[C@H]2C1=O (stereo not given in full), the IC50 [1] was under 1 µM and the IC50 [2] was “in the range around 1 µM”.
With N[C@@H]1C[C@H]2C(=O)N([C@H](CC(=O)O)C(=O)NCc3ccc(Cl)c(Cl)c3)CCC(CCc3ccccc3)N2C1 (stereo not given in full) the IC50 [1] was under 1 µM and the IC50 [2] was under 1 µM.
In the case of CCC[C@H](C(=O)NS(=O)(=O)c1ccc(Cl)c(Cl)c1)N1CCC(CCc2ccccc2)N2C[C@H](N)C[C@H]2C1=O (stereo not given in full), the IC50 [1] is reported as under 1 µM and the IC50 [2] is reported as “in the range around 1 µM”.
For N#CCC[C@H](C(=O)NCc1ccc(Cl)c(Cl)c1)N1CCC(CCc2ccccc2)N2C[C@H](N)C[C@H]2C1=O (stereo not given in full), the IC50 [1] was under 1 µM and the IC50 [2] was under 1 µM.
Work on C[C@H](C(=O)NCc1ccc(C(F)(F)F)cc1)N1CCC(CCc2ccccc2)N2C[C@H](N)C[C@H]2C1=O (stereo not given in full) yielded an IC50 [1] of under 1 µM and an IC50 [2] of under 1 µM.
In the case of N[C@@H]1C[C@H]2C(=O)N([C@H](CCC(=O)O)C(=O)NCc3ccc(C(F)(F)F)cc3)CCC(CCc3ccccc3)N2C1 (stereo in doubt; form 2) [listing 2 of 2 here], the IC50 [1] is reported as under 1 µM and the IC50 [2] is reported as under 1 µM.
